From paper PMC6479349, “Derivatives of 3-Aminopyrazine-2-carboxamides: Synthesis, Antimicrobial Evaluation, and in Vitro Cytotoxicity” (Molecules, 2019)
≈ marks a conversion by molar mass, not a printed value.

Experiments:
[1] = test system: Pseudomonas aeruginosa CCM 3955; set-up: method as in PMID 26084645; details: previously published positional isomer; cited from earlier work
[2] = test system: Ataxia Telangiectasia and Rad3 Related (ATR) protein kinase; set-up: method as in doi:10.1007/s00044-013-0665-6; details: cited from earlier work
[3] = test system: Mycobacterium smegmatis DSM 43465; test: Antimycobacterial microdilution broth panel MIC (resazurin); format: cell-based; details: for MIC: Mycolicibacterium smegmatis
[4] = test system: Mycobacterium tuberculosis H37Rv; test: Antimycobacterial microdilution broth MIC (Alamar Blue); format: cell-based
[5] = Lipophilicity by reverse phase HPLC (log k); details: RP-HPLC C18, MeOH 70% / H2O 30%, 30 °C
Protocol: The mobile phase consisted of MeOH (HPLC grade, 70%) and H2O (HPLC-Milli-Q Grade, 30%). The flow rate was 1.0 mL/min, samples were injected in a volume of 20 µL, and the column temperature was 30 °C. Detection and monitoring wavelength were 210 nm and 270 nm, respectively. Retention times (Rt) were measured in minutes. The dead time of the system (Dt) was determined as the retention time of the KI methanolic solution. Capacity factors k for individual compounds were calculated according to the formula k = (Rt – Dt)/Dt. Capacity factor k was converted to log scale and (log k) and used as a measure of lipophilicity.

[6] = test system: HepG2 cell line; test: In vitro cytotoxicity, CellTiter 96 Aqueous One
[7] = In vitro cytotoxicity, CellTiter 96 Aqueous One; details: human
[8] = Solubility in the cytotoxicity testing medium; details: cytotoxicity assay medium; highest tested concentration 50 µM
[9] = test system: Mycobacterium aurum DSM 43999; test: Antimycobacterial microdilution broth panel MIC (resazurin); format: cell-based; details: Mycolicibacterium aurum, DSM43999
[10] = test system: M. avium ssp. avium CNCTC My 80/72; test: Antimycobacterial microdilution broth MIC (Alamar Blue); format: cell-based, Mycobacterium avium
[11] = test system: M. kansasii CNCTC My 235/80; test: as above; format: cell-based, Mycobacterium kansasii
[12] = test system: Lichtheimia corymbifera CCM 8077; test: Antifungal microdilution broth MIC; details: CCM8077, 48 h, read-out: MIC Lichtheimia corymbifera (standards)
[13] = test system: Trichophyton interdigitale CCM 8377; test: Antifungal microdilution broth MIC; details: Trichophyton interdigitale, CCM8377, 72 h, read-out: MIC Trichophyton interdigitale (standards)
[14] = test system: Aspergillus fumigatus ATCC 204305; test: Antifungal microdilution broth MIC; details: ATCC204305, 48 h, read-out: MIC Aspergillus fumigatus (standards)
[15] = test system: C. tropicalis CCM 8264; test: Antifungal microdilution broth MIC; details: Candida tropicalis, CCM8264, 48 h, read-out: MIC C. tropicalis (standards)
[16] = test system: C. parapsilosis CCM 8260; test: Antifungal microdilution broth MIC; details: Lodderomyces parapsilosis, CCM8260, 48 h, read-out: MIC C. parapsilosis (standards)
[17] = test system: C. krusei CCM 8271; test: Antifungal microdilution broth MIC; details: Pichia kudriavzevii, CCM8271, 48 h, read-out: MIC C. krusei (standards)
[18] = test system: Aspergillus flavus CCM 8363; test: Antifungal microdilution broth MIC; details: CCM8363, 48 h, read-out: MIC Aspergillus flavus (standards)
[19] = test system: Candida albicans CCM 8320; test: Antifungal microdilution broth MIC; details: CCM8320, 48 h, read-out: MIC Candida albicans (standards)
[20] = Mycobacterium tuberculosis, H37RV, M. tuberculosis H37Rv, value in parentheses
[21] = Mycobacterium tuberculosis, H37RV, pH 6.6, M. tuberculosis H37Rv, Middlebrook 7H9 pH 6.6

Nc1cnc(C(=O)Nc2ccc(C(F)(F)F)cc2)cn1 [5-amino-N-(4-(trifluoromethyl)phenyl)pyrazine-2-carboxamide]
MIC P. aeruginosa [1]: 250 µM (≈ 70.6 µg/mL)

Nc1nccnc1C(=O)Nc1ccccc1 [Compound 13, 3-Amino-N-phenylpyrazine-2-carboxamide]
inhibitory effects on ATR protein kinase [2]: inhibitory effects | MIC ([3]; DSM43465): > 500 µg/mL | MIC ([3]; DSM43465, value in parentheses): > 2330 µM | MIC [4, 20]: > 467 µM | MIC [4, 21]: > 100 µg/mL | log k [5]: 0.189

COc1ccc(NC(=O)c2nccnc2N)c(OC)c1 [Compound 17, 3-Amino-N-(2,4-dimethoxyphenyl)pyrazine-2-carboxamide]
cytotoxicity against HepG2 [6]: nontoxic | IC50 at 24 h [7]: > 50 µM | solubility in the testing medium [8]: decreased solubility | MIC ([3]; DSM43465): > 500 µg/mL | MIC ([3]; DSM43465, value in parentheses): > 1820 µM | MIC ([4]; M. tuberculosis H37Rv, value in parentheses): 45.6 µM | MIC [4, 20]: 46 µM | MIC [4, 21]: 12.5 µg/mL | log k [5]: 0.37

NNC(=O)c1ccncc1 [INH, isoniazid, reference compound]
MIC [9]: 1.95 to 3.91 µg/mL (≈ 14.2 to 28.5 µM) | MIC M. smegmatis [3]: 7.81 to 15.62 µg/mL | MIC ([3]; DSM43465): 7.81 to 15.6 µg/mL | MIC M. avium [10]: 6.25 to 12.5 µg/mL | MIC [4, 21]: 0.1 to 0.2 µg/mL | MIC M. kansasii [11]: 3.13 to 12.5 µg/mL

C[C@@H](c1ncncc1F)[C@](O)(Cn1cncn1)c1ccc(F)cc1F [voriconazole]
MIC [12]: > 16 µg/mL | MIC [13]: > 16 µg/mL | MIC [14]: 1 µg/mL (≈ 2.86 µM) | MIC [15]: > 16 µg/mL | MIC [16]: 8 µg/mL (≈ 22.9 µM) | MIC [17]: 0.5 µg/mL (≈ 1.43 µM) | MIC [18]: > 16 µg/mL | MIC [19]: > 16 µg/mL
